Literature values as cited in patent US20020099100A1, “Treatment of dry eye syndrome” (priority 2000, published 2002).

Tested on: dry eye syndrome
Conditions: in vivo

Vitamin A
Underlying cellular changes that lead to dry eye syndrome: reverse many of the underlying cellular changes
